Where a name gives a salt, the structure may show the parent alone. Some results are limits rather than exact numbers.

One may read the IC50 as the concentration at which inhibition is half-maximal.

In this assay the target is T1, NLRP3 (Homo sapiens, UniProt Q96P20).
T1 construct: Seed THP-1 cells (25,000 cells/well) containing 1.0 μg/ml LPS in 40 μl of RPMI medium; host or cells: THP-1 cells
T1 sequence (Q96P20 whole entry): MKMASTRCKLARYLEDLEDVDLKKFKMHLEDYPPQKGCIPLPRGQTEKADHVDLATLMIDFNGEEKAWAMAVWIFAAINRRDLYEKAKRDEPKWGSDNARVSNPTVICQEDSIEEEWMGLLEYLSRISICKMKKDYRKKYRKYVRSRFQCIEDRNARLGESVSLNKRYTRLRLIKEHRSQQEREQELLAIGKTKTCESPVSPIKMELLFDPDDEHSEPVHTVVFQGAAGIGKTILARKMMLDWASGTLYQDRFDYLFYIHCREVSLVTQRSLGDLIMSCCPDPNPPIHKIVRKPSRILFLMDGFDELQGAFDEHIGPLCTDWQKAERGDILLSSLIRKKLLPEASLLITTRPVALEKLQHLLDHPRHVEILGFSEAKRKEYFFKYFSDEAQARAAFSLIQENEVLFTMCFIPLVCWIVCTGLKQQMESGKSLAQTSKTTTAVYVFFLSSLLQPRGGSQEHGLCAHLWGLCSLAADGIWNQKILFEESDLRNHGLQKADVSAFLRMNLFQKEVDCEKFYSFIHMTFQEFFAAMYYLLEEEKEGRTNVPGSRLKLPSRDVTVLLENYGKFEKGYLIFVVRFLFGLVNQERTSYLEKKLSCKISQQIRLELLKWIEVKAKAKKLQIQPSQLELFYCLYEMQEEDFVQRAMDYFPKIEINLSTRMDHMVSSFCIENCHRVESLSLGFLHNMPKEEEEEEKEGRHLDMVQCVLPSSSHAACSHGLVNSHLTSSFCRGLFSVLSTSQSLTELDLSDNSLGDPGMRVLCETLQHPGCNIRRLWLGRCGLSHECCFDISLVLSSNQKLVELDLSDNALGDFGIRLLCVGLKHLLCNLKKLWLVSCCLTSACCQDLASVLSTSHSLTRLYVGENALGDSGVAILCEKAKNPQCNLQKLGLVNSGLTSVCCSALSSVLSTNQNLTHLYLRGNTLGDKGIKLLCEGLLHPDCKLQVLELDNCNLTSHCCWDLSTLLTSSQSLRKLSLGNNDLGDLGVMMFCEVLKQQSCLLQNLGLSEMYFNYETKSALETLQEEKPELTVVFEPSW
Description: THP-1 cells pyroptosis assay. The conditions noted are these: 1.0 μg/ml LPS, compound 3 hrs, nigericin 5 μM 1 hr, resazurin readout. It is filed as cell-based. The procedure: THP-1 cells (ATCC # TIB-202) were grown in RPMI containing L-glutamine (Gibco #11835) supplemented with 1 mM sodium pyruvate (Sigma # S8636) and penicillin (100 units/ml)/streptomycin (0.1 mg/ml) (Sigma # P4333) in 10% Fetal Bovine Serum (FBS) (Sigma # F0804). The cells were routinely passaged and grown to confluency (˜10^6 cells/ml). On the day of the experiment, THP-1 cells were harvested and resuspended into RPMI medium (without FBS). The cells were then counted and viability (>90%) checked by Trypan blue (Sigma # T8154). Appropriate dilutions were made to give a concentration of 625,000 cells/ml. To this diluted cell solution was added LPS (Sigma # L4524) to give a 1 μg/ml Final Assay Concentration (FAC). 40 μl of the final preparation was aliquoted into each well of a 96-well plate. The plate thus prepared was used for compound screening. The following method step-by-step assay was followed for compound screening. • 1. Seed THP-1 cells (25,000 cells/well) containing 1.0 μg/ml LPS in 40 μl of RPMI medium (without FBS) in 96-well, black walled, clear bottom cell culture plates coated with poly-D-lysine (VWR #734-0317) • 2. Add 5 μl compound (8 points half-log dilution, with 10 μM top dose) or vehicle (DMSO 0.1% FAC) to the appropriate wells • 3. Incubate for 3 hrs at 37° C., 5% CO2 • 4. Add 5 μl nigericin (Sigma # N7143) (FAC 5 μM) to all wells • 5. Incubate for 1 hr at 37° C., 5% CO2 • 6. At the end of the incubation period, spin plates at 300×g for 3 mins and remove supernatant 7. Then add 50 μl of resazurin (Sigma # R7017) (FAC 100 μM resazurin in RPMI medium without FBS) and incubate plates for a further 1-2 hrs at 37° C. and 5% CO2 • 8. Plates were read in an Envision reader at Ex 560 nm and Em 590 nm • 9. IC50 data is fitted to a non-linear regression equation (log inhibitor vs response-variable slope 4-parameters) The results of the pyroptosis assay are summarised in Table 2 below as THP IC50.
Background: The colour change of resazurin is a common sign of viable cells or microbes.
Regarding `COc1cc(-c2cc(F)cc(C(C)C)c2CC(=O)NS(=O)(=O)c2cc(CN(C)C)n(C)n2)ccn1` [Example 8, N-((5-((Dimethylamino)methyl)-1-methyl-1H-pyrazol-3-yl)sulfonyl)-2-(4-fluoro-2-isopropyl-6-(2-methoxypyridin-4-yl)phenyl) acetamide, potassium salt], the IC50 was in the range of 1 to 5 µM. `CN(C)CC(C)(C)n1ccc(S(=O)(=O)NC(=O)Cc2c3c(cc4c2CCC4)CCC3)n1` [Example 13, N-((1-(1-(Dimethylamino)-2-methylpropan-2-yl)-1H-pyrazol-3-yl)sulfonyl)-2-(1,2,3,5,6,7-hexahydro-s-indacen-4-yl)acetamide] came in with an IC50 of 5 to 10 µM. Then `CC(c1cc(S(=O)(=O)NC(=O)Cc2c3c(cc4c2CCC4)CCC3)nn1C(C)C)N(C)C` (stereo not drawn) [Example 3, N-((5-(1-(Dimethylamino)ethyl)-1-isopropyl-1H-pyrazol-3-yl)sulfonyl)-2-(1,2,3,5,6,7-hexahydro-s-indacen-4-yl)acetamide], with 1 to 5 µM. The figure for `CC(C)c1cc(F)cc(-c2cccnc2)c1CC(=O)NS(=O)(=O)c1cc(C(=O)N(C)C)n(C)n1` [Example 5, 3-(N-(2-(4-Fluoro-2-isopropyl-6-(pyridin-3-yl)phenyl)acetyl)sulfamoyl)-N,N,1-trimethyl-1H-pyrazole-5-carboxamide] is 1 to 5 µM; for `CC(c1cc(S(=O)(=O)NC(=O)Cc2c3c(cc4c2CCC4)CCC3)nn1C1CC1)N(C)C` (stereo not drawn) [Example 9, N-((1-Cyclopropyl-5-(1-(dimethylamino)ethyl)-1H-pyrazol-3-yl)sulfonyl)-2-(1,2,3,5,6,7-hexahydro-s-indacen-4-yl)acetamide] it is 1 to 5 µM. In the case of `CC(C)c1cc(F)cc(-c2ccncc2)c1CC(=O)NS(=O)(=O)c1ccn(C(C)(C)CN(C)C)n1` [Example 7, N-((1-(1-(Dimethylamino)-2-methylpropan-2-yl)-1H-pyrazol-3-yl)sulfonyl)-2-(4-fluoro-2-isopropyl-6-(pyridin-4-yl)phenyl)acetamide, potassium salt], the IC50 lay within 1 to 5 µM.

In the case of `CC(C)c1cc(F)cc(-c2ccncc2)c1CC(=O)NS(=O)(=O)c1cc(C(=O)N(C)C)n(C)n1` [Example 6, 3-(N-(2-(4-Fluoro-2-isopropyl-6-(pyridin-4-yl)phenyl)acetyl)sulfamoyl)-N,N,1-trimethyl-1H-pyrazole-5-carboxamide, potassium salt], the IC50 is 1 to 5 µM.

`COc1cc(-c2cc(F)cc(C(C)C)c2CC(=O)NS(=O)(=O)c2ccn(C(C)(C)CN(C)C)n2)ccn1` [Example 18] registered an IC50 of 1 to 5 µM. On to `COc1cc(-c2ccc3c(c2CC(=O)NS(=O)(=O)c2cc(C(=O)N(C)C)n(C)n2)CCC3)ccn1` [Example 14, 3-(N-(2-(5-(2-Methoxypyridin-4-yl)-2,3-dihydro-1H-inden-4-yl)acetyl)sulfamoyl)-N,N,1-trimethyl-1H-pyrazole-5-carboxamide], for which the IC50 was 5 to 10 µM.

Turning to `CN(C)C(=O)c1cc(S(=O)(=O)NC(=O)Cc2c3c(cc4c2CCC4)CCC3)nn1C` [Example 12, 3-(N-(2-(1,2,3,5,6,7-Hexahydro-s-indacen-4-yl)acetyl)sulfamoyl)-N,N,1-trimethyl-1H-pyrazole-5-carboxamide], the half-maximal inhibitory concentration (IC50) lay within 5 to 10 µM. Then `CC(C)c1cc(F)cc(C(C)C)c1CC(=O)NS(=O)(=O)c1cc(CN(C)C)n(C2CC2)n1` [Example 10, N-((1-Cyclopropyl-5-((dimethylamino)methyl)-1H-pyrazol-3-yl)sulfonyl)-2-(4-fluoro-2,6-diisopropylphenyl)acetamide], with 1 to 5 µM; and `CC(C)c1cc(F)cc(C(C)C)c1CC(=O)NS(=O)(=O)c1ccn(CCN(C)C)n1` [Example 16, N-((1-(2-(Dimethylamino)ethyl)-1H-pyrazol-3-yl)sulfonyl)-2-(4-fluoro-2,6-diisopropylphenyl)acetamide], with 5 to 10 µM; and `CC(C)c1cc(F)cc(C(C)C)c1CC(=O)NS(=O)(=O)c1cc(C(=O)N(C)C)n(C)n1` [Example 2, 3-(N-(2-(4-Fluoro-2,6-diisopropylphenyl)acetyl)sulfamoyl)-N,N,1-trimethyl-1H-pyrazole-5-carboxamide], with 1 to 5 µM. `CC(C)n1nc(S(=O)(=O)NC(=O)Cc2c3c(cc4c2CCC4)CCC3)cc1CN(C)C` [Example 1, N-((5-((Dimethylamino)methyl)-1-isopropyl-1H-pyrazol-3-yl)sulfonyl)-2-(1,2,3,5,6,7-hexahydro-s-indacen-4-yl)acetamide] returned an IC50 of 1 to 5 µM. The figure for `CC(C)c1cc(F)cc(-c2ccncc2)c1CC(=O)NS(=O)(=O)c1cc(CN(C)C)n(C)n1` [Example 17, N-((5-((Dimethylamino)methyl)-1-methyl-1H-pyrazol-3-yl)sulfonyl)-2-(4-fluoro-2-isopropyl-6-(pyridin-4-yl)phenyl)acetamide] is 1 to 5 µM; for `CN(C)C(=O)c1cc(S(=O)(=O)NC(=O)Cc2c(-c3ccnc(C#N)c3)ccc3c2CCC3)nn1C` [Example 15, 3-(N-(2-(5-(2-Cyanopyridin-4-yl)-2,3-dihydro-1H-inden-4-yl)acetyl)sulfamoyl)-N,N,1-trimethyl-1H-pyrazole-5-carboxamide] it is 1 to 5 µM; for `CC(c1cc(S(=O)(=O)NC(=O)Cc2c3c(cc4c2CCC4)CCC3)nn1C)N(C)C` (stereo not drawn) [Example 11, N-((5-(1-(Dimethylamino)ethyl)-1-methyl-1H-pyrazol-3-yl)sulfonyl)-2-(1,2,3,5,6,7-hexahydro-s-indacen-4-yl)acetamide] it is 1 to 5 µM. Regarding `COc1cc(-c2cc(F)cc(C(C)C)c2CC(=O)NS(=O)(=O)c2cc(C(=O)N(C)C)n(C)n2)ccn1` [Example 4, 3-(N-(2-(4-Fluoro-2-isopropyl-6-(2-methoxypyridin-4-yl)phenyl)acetyl)sulfamoyl)-N,N,1-trimethyl-1H-pyrazole-5-carboxamide, potassium salt], the 50% inhibitory concentration (IC50) is at most 1 µM.
